Test results reported in patent publication US10167262B2, “Herbicidal substituted 3-arylpyrazoles” (FMC CORPORATION, priority 2014, dated 2019).

Key:
Format in all cases: in vivo
[1] = test system: waterhemp_RES2, (ALS & HPPD resistant common waterhemp, Amaranthus rudis); experiment: Test E postemergence greenhouse test, plant response rating 0-100; conditions: scale 0 to 100
Procedure, shortened: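 Resistant waterhemp biotypes grown in peat/vermiculite medium and treated postemergence at 2–18 cm height (1- to 4-leaf stage). Kept in greenhouse 14 to 21 days, then visually rated against untreated controls on a 0–100 scale (0 no effect, 100 complete control).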

[2] = test system: goosegrass (Eleusine indica); experiment: Test C postemergence greenhouse test, plant response rating 0-100; conditions: for Plant response rating, Goosegrass: scale 0 to 100
Procedure, shortened: (§1)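 Postemergence spray of formulated test chemicals on plants 2 to 18 cm tall (1- to 4-leaf stage) grown in peat/vermiculite medium. Greenhouse hold 13 to 15 days, then visual comparison with untreated controls on a 0-100 scale (0 no effect, 100 complete control); dash means no test result.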

[3] = test system: deadnettle (henbit deadnettle, Lamium amplexicaule); experiment: as above; conditions: for Plant response rating, Deadnettle: scale 0 to 100
Procedure, shortened: as §1

[4] = test system: winter barley (Hordeum vulgare); experiment: as above; conditions: for Plant response rating, Barley: scale 0 to 100
Procedure, shortened: as §1

[5] = test system: green foxtail (Setaria viridis); experiment: as above; conditions: for Plant response rating, Foxtail, Green: scale 0 to 100
Procedure, shortened: as §1

[6] = test system: canarygrass (Phalaris minor); experiment: as above; conditions: for Plant response rating, Canarygrass: scale 0 to 100
Procedure, shortened: as §1

[7] = test system: woolly cupgrass (Eriochloa villosa); experiment: as above; conditions: for Plant response rating, Cupgrass, Woolly: scale 0 to 100
Procedure, shortened: as §1

[8] = test system: windgrass (Apera spica-venti); experiment: as above; conditions: for Plant response rating, Windgrass: scale 0 to 100
Procedure, shortened: as §1

[9] = test system: downy bromegrass (Bromus tectorum); experiment: as above; conditions: for Plant response rating, Bromegrass, Downy: scale 0 to 100
Procedure, shortened: as §1

[10] = test system: cocklebur (common cocklebur, Xanthium strumarium); experiment: as above; conditions: for Plant response rating, Cocklebur: scale 0 to 100
Procedure, shortened: as §1

[11] = test system: bermudagrass (Cynodon dactylon); experiment: as above; conditions: for Plant response rating, Bermudagrass: scale 0 to 100
Procedure, shortened: as §1

[12] = test system: surinam grass (Brachiaria decumbens); experiment: as above; conditions: for Plant response rating, Surinam Grass: scale 0 to 100
Procedure, shortened: as §1

Cn1cc(C(=O)c2cccs2)c(-c2cc(Cl)cc(Cl)c2)n1 [Compound 17]
85: Plant response rating, Waterhemp_RES2 ([1]; 250 g ai/ha)
75: Plant response rating, Waterhemp_RES2 ([1]; 62 g ai/ha)
80: Plant response rating, Waterhemp_RES2 ([1]; 125 g ai/ha)
15: Plant response rating, Cupgrass, Woolly ([7]; 500 g ai/ha)
95: Plant response rating, Waterhemp_RES2 ([1]; 500 g ai/ha)
40: Plant response rating, Cocklebur ([10]; 500 g ai/ha)
30: Plant response rating, Cocklebur ([10]; 250 g ai/ha)
5: Plant response rating, Goosegrass ([2]; 250 g ai/ha) | Plant response rating, Goosegrass ([2]; 500 g ai/ha) | Plant response rating, Canarygrass ([6]; 500 g ai/ha) | Plant response rating (0 to 100), Cocklebur ([10]; 62 g ai/ha) | Plant response rating, Surinam Grass ([12]; 250 g ai/ha) | Plant response rating, Surinam Grass ([12]; 500 g ai/ha)
0: Plant response rating (0 to 100), Goosegrass ([2]; 62 g ai/ha) | Plant response rating (0 to 100), Goosegrass ([2]; 125 g ai/ha) | Plant response rating (0 to 100), Deadnettle ([3]; 62 g ai/ha) | Plant response rating (0 to 100), Deadnettle ([3]; 125 g ai/ha) | Plant response rating, Deadnettle ([3]; 250 g ai/ha) | Plant response rating, Deadnettle ([3]; 500 g ai/ha) | Plant response rating (0 to 100), Barley ([4]; 62 g ai/ha) | Plant response rating, Barley ([4]; 125 g ai/ha) | Plant response rating, Barley ([4]; 250 g ai/ha) | Plant response rating, Barley ([4]; 500 g ai/ha) | Plant response rating (0 to 100), Foxtail, Green ([5]; 62 g ai/ha) | Plant response rating (0 to 100), Foxtail, Green ([5]; 125 g ai/ha) | Plant response rating, Foxtail, Green ([5]; 250 g ai/ha) | Plant response rating, Foxtail, Green ([5]; 500 g ai/ha) | Plant response rating (0 to 100), Canarygrass ([6]; 62 g ai/ha) | Plant response rating (0 to 100), Canarygrass ([6]; 125 g ai/ha) | Plant response rating, Canarygrass ([6]; 250 g ai/ha) | Plant response rating (0 to 100), Cupgrass, Woolly ([7]; 62 g ai/ha) | Plant response rating (0 to 100), Cupgrass, Woolly ([7]; 125 g ai/ha) | Plant response rating, Cupgrass, Woolly ([7]; 250 g ai/ha) | Plant response rating (0 to 100), Windgrass ([8]; 62 g ai/ha) | Plant response rating (0 to 100), Windgrass ([8]; 125 g ai/ha) | Plant response rating, Windgrass ([8]; 250 g ai/ha) | Plant response rating, Windgrass ([8]; 500 g ai/ha) | Plant response rating (0 to 100), Bromegrass, Downy ([9]; 62 g ai/ha) | Plant response rating, Bromegrass, Downy ([9]; 125 g ai/ha) | Plant response rating, Bromegrass, Downy ([9]; 250 g ai/ha) | Plant response rating, Bromegrass, Downy ([9]; 500 g ai/ha) | Plant response rating (0 to 100), Bermudagrass ([11]; 62 g ai/ha) | Plant response rating, Bermudagrass ([11]; 125 g ai/ha) | Plant response rating, Bermudagrass ([11]; 250 g ai/ha) | Plant response rating, Bermudagrass ([11]; 500 g ai/ha) | Plant response rating (0 to 100), Surinam Grass ([12]; 62 g ai/ha) | Plant response rating (0 to 100), Surinam Grass ([12]; 125 g ai/ha)
60: Plant response rating, Waterhemp_RES2 ([1]; 31 g ai/ha)
10: Plant response rating (0 to 100), Cocklebur ([10]; 125 g ai/ha)

C=CCn1cc(C(=O)c2ccccc2)c(-c2cc(Cl)cc(Cl)c2)n1 [Compound 60]
5: Plant response rating (0 to 100), Cupgrass, Woolly ([7]; 125 g ai/ha) | Plant response rating, Cupgrass, Woolly ([7]; 250 g ai/ha) | Plant response rating (0 to 100), Bermudagrass ([11]; 62 g ai/ha) | Plant response rating (0 to 100), Bermudagrass ([11]; 125 g ai/ha) | Plant response rating, Bermudagrass ([11]; 250 g ai/ha) | Plant response rating, Surinam Grass ([12]; 250 g ai/ha)
20: Plant response rating, Waterhemp_RES2 ([1]; 62 g ai/ha) | Plant response rating, Waterhemp_RES2 ([1]; 125 g ai/ha) | Plant response rating (0 to 100), Cocklebur ([10]; 125 g ai/ha)
10: Plant response rating (0 to 100), Cocklebur ([10]; 31 g ai/ha)
0: Plant response rating (0 to 100), Goosegrass ([2]; 31 g ai/ha) | Plant response rating (0 to 100), Goosegrass ([2]; 62 g ai/ha) | Plant response rating (0 to 100), Goosegrass ([2]; 125 g ai/ha) | Plant response rating, Goosegrass ([2]; 250 g ai/ha) | Plant response rating (0 to 100), Deadnettle ([3]; 31 g ai/ha) | Plant response rating (0 to 100), Deadnettle ([3]; 62 g ai/ha) | Plant response rating (0 to 100), Deadnettle ([3]; 125 g ai/ha) | Plant response rating, Deadnettle ([3]; 250 g ai/ha) | Plant response rating (0 to 100), Barley ([4]; 31 g ai/ha) | Plant response rating (0 to 100), Barley ([4]; 62 g ai/ha) | Plant response rating (0 to 100), Barley ([4]; 125 g ai/ha) | Plant response rating, Barley ([4]; 250 g ai/ha) | Plant response rating (0 to 100), Foxtail, Green ([5]; 31 g ai/ha) | Plant response rating (0 to 100), Foxtail, Green ([5]; 62 g ai/ha) | Plant response rating (0 to 100), Foxtail, Green ([5]; 125 g ai/ha) | Plant response rating, Foxtail, Green ([5]; 250 g ai/ha) | Plant response rating (0 to 100), Canarygrass ([6]; 31 g ai/ha) | Plant response rating (0 to 100), Canarygrass ([6]; 62 g ai/ha) | Plant response rating (0 to 100), Canarygrass ([6]; 125 g ai/ha) | Plant response rating, Canarygrass ([6]; 250 g ai/ha) | Plant response rating (0 to 100), Cupgrass, Woolly ([7]; 31 g ai/ha) | Plant response rating (0 to 100), Cupgrass, Woolly ([7]; 62 g ai/ha) | Plant response rating (0 to 100), Windgrass ([8]; 62 g ai/ha) | Plant response rating (0 to 100), Windgrass ([8]; 125 g ai/ha) | Plant response rating, Windgrass ([8]; 250 g ai/ha) | Plant response rating (0 to 100), Bromegrass, Downy ([9]; 31 g ai/ha) | Plant response rating (0 to 100), Bromegrass, Downy ([9]; 62 g ai/ha) | Plant response rating (0 to 100), Bromegrass, Downy ([9]; 125 g ai/ha) | Plant response rating, Bromegrass, Downy ([9]; 250 g ai/ha) | Plant response rating (0 to 100), Bermudagrass ([11]; 31 g ai/ha) | Plant response rating (0 to 100), Surinam Grass ([12]; 62 g ai/ha) | Plant response rating (0 to 100), Surinam Grass ([12]; 125 g ai/ha)
50: Plant response rating, Cocklebur ([10]; 250 g ai/ha)
25: Plant response rating, Waterhemp_RES2 ([1]; 250 g ai/ha)
15: Plant response rating (0 to 100), Cocklebur ([10]; 62 g ai/ha)
